Reference: patent publication US9585393B2, “Saflufenacil, flumioxazin, and 2,4-D weed control compositions and methods of use thereof” (Valent U.S.A., Corporation, priority 2014, dated 2017)

Key:
[1] = system: Eclipta; experiment: Field test, post emergence weed control: Eclipta; type: in vivo, Eclipta prostrata; details: 12 DAT, MSO 1% v/v
Method: (§1) The following field test was conducted during spring in Mississippi. Sharpen® was used in the test as the source of saflufenacil. Valor® was used in the test as the source of flumioxazin. Roundup Ready soybeans (Glycine max) were used in the test as the crop plant. All of the treatments contained MSO concentrate oil at 1% v/v.
(§2) When the test began, the test plot had Horseweed that was 6 to 20 inches tall. Applications were administered at the concentrations as follows. Saflufenacil was administered at 0.011, 0.017 or 0.022 lb ai/acre (indicated in the table as “S” followed by the amount). Flumioxazin was administered at 0.064 lb ai/acre, and 2,4-D was administered at 0.5 lb ai/acre throughout the experiment. Three days after the treatment (3 DAT), soybeans were planted across the front of the plot. On 7 DAT, another pass of soybeans was planted across the front of the plot with a 30 inch planter. Each test was
(§3) On 11 DAT, readings were taken to determine the survival of Horseweed and Crabgrass. On 12 DAT, readings were taken to determine the survival of Palmer Amaranth, Broadleaf Signalgrass, Common Barnyardgrass, Yellow Nutsedge, and Eclipta. Survival ratings were taken by counting the number of alive and dead plants at the time of the reading. The pytotoxicity of each treatment was also evaluated by examining the soybeans at 11 and 12 DAT. All data was analyzed using Bartlett's test and with p value of […] for determining significance of the results. The Effect of Saflufenacil, Flumioxazin and 2,4-D on Weeds.”

[2] = system: Horseweed; experiment: Field test, post emergence weed control: Horseweed; type: in vivo, Conyza Canadensis; details: for Effect on Weeds, Plants: Horseweed: 11 DAT, MSO 1% v/v; for control (Actual % Control) / % Alone: Horseweed; for control (Actual % Control): rounded Table 1 values, saflufenacil 0.011, flumioxazin 0.064, 2,4-D 0.5 lb ai/acre as present; for % Alone: synergy calculation, each component alone (saflufenacil 0.011, 2,4-D 0.5, flumioxazin 0.064 lb ai/acre)
Method: as §1, §2, §3
Applicants used the widely accepted fraction method for determining synergy. The fraction method involves not merely adding together the individual control percentages together, as that will often be greater than 100%. The fraction method involves taking the control as a decimal value (X), multiplying the 1 minus X values together, then taking the “1 minus” value to get the calculated control as a decimal value. For example, if two products give 60% control, the additive or predicted value would be 84% and not 120%. See Rao, V. S., Principles of Weed Science, Second Edition, (2000) 351-352, and the illustrative example below.

[3] = system: Broadleaf Signalgrass; experiment: Field test, post emergence weed control: Broadleaf Signalgrass; type: in vivo, Brachiaria platyhylla; details: 12 DAT, MSO 1% v/v
Method: as §1, §2, §3

[4] = system: Common Barnyardgrass; experiment: Field test, post emergence weed control: Common Barnyardgrass; type: in vivo, Echinochloa crus-galli; details: 12 DAT, MSO 1% v/v
Method: as §1, §2, §3

[5] = system: Large Crabgrass; experiment: Field test, post emergence weed control: Large Crabgrass; type: in vivo, Digitaria sanguinalis; details: 11 DAT, MSO 1% v/v
Method: as §1, §2, §3

[6] = system: Palmer Amaranth; experiment: Field test, post emergence weed control: Palmer Amaranth; type: in vivo, Amaranthus palmeri; details: 12 DAT, MSO 1% v/v
Method: as §1, §2, §3

[7] = system: Yellow Nutsedge; experiment: Field test, post emergence weed control: Yellow Nutsedge; type: in vivo, Cyperus esculentus; details: 12 DAT, MSO 1% v/v
Method: as §1, §2, §3

[8] = saflufenacil 0.011 lb ai/acre (flumioxazin 0.064, 2,4-D 0.5 lb ai/acre where in the treatment)
[9] = saflufenacil 0.017 lb ai/acre (flumioxazin 0.064, 2,4-D 0.5 lb ai/acre where in the treatment)
[10] = saflufenacil 0.022 lb ai/acre (flumioxazin 0.064, 2,4-D 0.5 lb ai/acre where in the treatment)
[11] = no saflufenacil, flumioxazin 0.064 lb ai/acre, 2,4-D 0.5 lb ai/acre

CC(C)N(C)S(=O)(=O)NCc1cc(-n2c(=O)cc(C(F)(F)F)n(C)c2=O)c(F)cc1Cl [S, N′-[2-chloro-4-fluoro-5-(3-methyl-2,6-dioxo-4-(trifluoromethyl)-3,6-dihydro-1(2H)-pyrimidinyl)benzyl]-N-isopropyl-N-methylsulfamide]
Effect on Weeds, Plants: Eclipta [1, 8]: 83.0
Effect on Weeds, Plants: Eclipta [1, 9]: 91.3
Effect on Weeds, Plants: Eclipta [1, 10]: 93.0
Effect on Weeds, Plants: Horseweed [2, 8]: 66.7
Effect on Weeds, Plants: Horseweed [2, 9]: 78.3
Effect on Weeds, Plants: Horseweed [2, 10]: 86.7
control (Actual % Control) [2]: 67%
% Alone [2]: 67.00%
Effect on Weeds, Plants: Broadle Signalgrass [3, 8]: 31.7
Effect on Weeds, Plants: Broadle Signalgrass [3, 9]: 45.0
Effect on Weeds, Plants: Broadle Signalgrass [3, 10]: 31.7
Effect on Weeds, Plants: Common Barnyardgrass [4, 8]: 31.7
Effect on Weeds, Plants: Common Barnyardgrass [4, 9]: 41.7
Effect on Weeds, Plants: Common Barnyardgrass [4, 10]: 25.0
Effect on Weeds, Plants: Large Crabgrass [5, 8]: 43.3
Effect on Weeds, Plants: Large Crabgrass [5, 9]: 60.0
Effect on Weeds, Plants: Large Crabgrass [5, 10]: 56.7
Effect on Weeds, Plants: Palmer Amaranth [6, 8]: 91.0
Effect on Weeds, Plants: Palmer Amaranth [6, 9]: 91.3
Effect on Weeds, Plants: Palmer Amaranth [6, 10]: 96.0
Effect on Weeds, Plants: Yellow Nutsedge [7, 8]: 23.3
Effect on Weeds, Plants: Yellow Nutsedge [7, 9]: 35.0
Effect on Weeds, Plants: Yellow Nutsedge [7, 10]: 30.0

O=C(O)COc1ccc(Cl)cc1Cl [2,4-D, 2,4-Dichlorophenoxyacetic acid]
Effect on Weeds, Plants: Eclipta [1, 11]: 91.0
Effect on Weeds, Plants: Horseweed [2, 11]: 11.7
control (Actual % Control) [2]: 12%
% Alone [2]: 12.00%
Effect on Weeds, Plants: Broadle Signalgrass [3, 11]: 21.7
Effect on Weeds, Plants: Common Barnyardgrass [4, 11]: 15.0
Effect on Weeds, Plants: Large Crabgrass [5, 11]: 50.0
Effect on Weeds, Plants: Palmer Amaranth [6, 11]: 91.0
Effect on Weeds, Plants: Yellow Nutsedge [7, 11]: 8.3

C#CCN1C(=O)COc2cc(F)c(N3C(=O)C4=C(CCCC4)C3=O)cc21 [Flumioxazin, 2-[7-fluoro-3,4-dihydro-3-oxo-4-(2-propynyl)-2H-1,4-benzoxazin-6-yl]-4,5,6,7-tetrahydro-1H-isoindole-1,3(2H)-dione]
Effect on Weeds, Plants: Eclipta [1, 11]: 86.3
Effect on Weeds, Plants: Horseweed [2, 11]: 15.0
control (Actual % Control) [2]: 15%
% Alone [2]: 15.00%
Effect on Weeds, Plants: Broadle Signalgrass [3, 11]: 45.0
Effect on Weeds, Plants: Common Barnyardgrass [4, 11]: 45.0
Effect on Weeds, Plants: Large Crabgrass [5, 11]: 70.0
Effect on Weeds, Plants: Palmer Amaranth [6, 11]: 96.0
Effect on Weeds, Plants: Yellow Nutsedge [7, 11]: 42.5
